Patent EP2270002A1 (Vereniging voor Christelijk Hoger Onderwijs, …, priority 2009, dated 2011)

biological target: histamine H4 receptor (Homo sapiens, UniProt Q9H3N8); test: histamine H4 receptor Ki (Table 1; no method described); format: binding

Structure (SMILES)	Ki [nM]
CN1CCN(c2nc(N)nc3cc(-c4ccccc4)ccc23)CC1 [Compound 3, 4-(4-methylpiperazin-1-yl)-7-phenylquinazolin-2-amine]	19
CN1CCN(c2nc(N)nc3cc(Br)ccc23)CC1 [Compound 2, 7-bromo-4-(4-methylpiperazin-1-yl)quinazolin-2-amine]	17
Cc1cccc2c(N3CCN(C)CC3)nc(N)nc12 [Compound 10]	91
CN1CCN(c2nc(N)nc3c(-c4ccoc4)cccc23)CC1 [Compound 16, 8-(furan-3-yl)-4-(4-methylpiperazin-1-yl)quinazolin-2-amine]	109
Cc1ccc2c(N3CCN(C)CC3)nc(N)nc2c1 [Compound 1]	24
Cc1cccc(C)c1-c1ccc2c(N3CCN(C)CC3)nc(N)nc2c1 [Compound 4, 7-(2,6-dimethylphenyl)-4-(4-methylpiperazin-1-yl)quinazolin-2-amine]	90
CN1CCN(c2nc(N)nc3cc(-c4ccoc4)ccc23)CC1 [Compound 7, 7-(furan-3-yl)-4-(4-methylpiperazin-1-yl)quinazolin-2-amine]	6
CN1CCN(c2nc(N)nc3cc(-c4ccsc4)ccc23)CC1 [Compound 9, 4-(4-methylpiperazin-1-yl)-7-(thiophen-3-yl)quinazolin-2-amine]	5
CN1CCN(c2nc(N)nc3c(Br)cccc23)CC1 [Compound 11, 8-bromo-4-(4-methylpiperazin-1-yl)quinazolin-2-amine]	111

Now from value to compound:

Ki [nM]	Structure (SMILES)
32	CN1CCN(c2nc(N)nc3c(-c4ccccc4)cccc23)CC1 [Compound 12, 4-(4-methylpiperazin-1-yl)-8-phenylquinazolin-2-amine]
29	CN1CCN(c2nc(N)nc3cc(-c4ccc(C#N)cc4)ccc23)CC1 [Compound 5, 4-(2-amino-4-(4-methylpiperazin-1-yl)quinazolin-7-yl)benzonitrile]
945	COc1ccc(-c2cccc3c(N4CCN(C)CC4)nc(N)nc23)cc1 [Compound 15, 8-(4-methoxyphenyl)-4-(4-methylpiperazin-1-yl)quinazolin-2-amine]
221	Cc1cccc(C)c1-c1cccc2c(N3CCN(C)CC3)nc(N)nc12 [Compound 13, 8-(2,6-dimethylphenyl)-4-(4-methylpiperazin-1-yl)quinazolin-2-amine]
55	COc1ccc(-c2ccc3c(N4CCN(C)CC4)nc(N)nc3c2)cc1 [Compound 6, 7-(4-methoxyphenyl)-4-(4-methylpiperazin-1-yl)quinazolin-2-amine]
4	CN1CCN(c2nc(N)nc3cc(-c4ccco4)ccc23)CC1 [Compound 8, 7-(furan-2-yl)-4-(4-methylpiperazin-1-yl)quinazolin-2-amine]
2330	CN1CCN(c2nc(N)nc3c(-c4ccc(C#N)cc4)cccc23)CC1 [Compound 14, 4-(2-amino-4-(4-methylpiperazin-1-yl)quinazolin-8-yl)benzonitrile]
